From PubChem BioAssay AID330 (DTP/NCI, 2004)
Toxic doses and inconclusive results are not listed. The calls were made as follows: active = survival T/C of 150% or more; inactive = T/C below 125% in these data.

Test system: P388 leukemia ip, CD2F1 mice, survival T/C
Experiment: NCI In Vivo Anticancer Drug Screen. Data for tumor model P388 Leukemia (intraperitoneal) in CD2F1 (CDF1) mice
Conditions: endpoint: median survival time, higher = longer survival
Summary of the method: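 Mice carrying the transplanted tumor received test compound or vehicle. Survival was recorded in each group, and the value is the treated-group measurement divided by that of the vehicle-treated control group.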

[1] = dose: 60.0 mg/kg/injection, schedule: Q01DX005 (ip), vehicle: saline with Tween-80
[2] = dose: 120.0 mg/kg/injection, schedule: Q01DX005 (ip), vehicle: saline with Tween-80
[3] = dose: 240.0 mg/kg/injection, schedule: Q01DX005 (ip), vehicle: saline with Tween-80
[4] = dose: 50.0 mg/kg/injection, schedule: Q01DX009 (ip), vehicle: saline
[5] = dose: 100.0 mg/kg/injection, schedule: Q01DX009 (ip), vehicle: saline
[6] = dose: 200.0 mg/kg/injection, schedule: Q01DX009 (ip), vehicle: saline
[7] = dose: 25.0 mg/kg/injection, schedule: Q01DX009 (ip), vehicle: saline with Tween-80
[8] = dose: 50.0 mg/kg/injection, schedule: Q01DX009 (ip), vehicle: saline with Tween-80
[9] = dose: 100.0 mg/kg/injection, schedule: Q01DX009 (ip), vehicle: saline with Tween-80
[10] = dose: 200.0 mg/kg/injection, schedule: Q01DX009 (ip), vehicle: saline with Tween-80
[11] = dose: 50.0 mg/kg/injection, schedule: Q01DX005 (ip), vehicle: Klucel (hydroxypropylcellulose) (HPC)
[12] = dose: 100.0 mg/kg/injection, schedule: Q01DX005 (ip), vehicle: Klucel (hydroxypropylcellulose) (HPC)
[13] = dose: 200.0 mg/kg/injection, schedule: Q01DX005 (ip), vehicle: Klucel (hydroxypropylcellulose) (HPC)
[14] = dose: 50.0 mg/kg/injection, schedule: Q01DX009 (ip), vehicle: Klucel (hydroxypropylcellulose) (HPC)
[15] = dose: 50.0 mg/kg/injection, schedule: Q01DX005 (ip), vehicle: saline with Tween-80
[16] = dose: 100.0 mg/kg/injection, schedule: Q01DX005 (ip), vehicle: saline with Tween-80

Measured: T/C

CNc1ncnc2c1ncn2C1CCCCO1 (stereo not drawn)
inactive: dose: 50.0 mg/kg/injection, schedule: Q01DX005 (ip), vehicle: saline 102 % of control | dose: 100.0 mg/kg/injection, schedule: Q01DX005 (ip), vehicle: saline 100 % of control | dose: 200.0 mg/kg/injection, schedule: Q01DX005 (ip), vehicle: saline 91 % of control

COC1=CCC2=C(CC[C@H]3[C@H]2CCP3(C)=S)C1 (stereo partly drawn)
inactive: dose: 50.0 mg/kg/injection, schedule: Q01DX005 (ip), vehicle: saline + Tween-80 + alcohol 115 % of control | dose: 100.0 mg/kg/injection, schedule: Q01DX005 (ip), vehicle: saline + Tween-80 + alcohol 106 % of control | dose: 200.0 mg/kg/injection, schedule: Q01DX005 (ip), vehicle: saline + Tween-80 + alcohol 101 % of control

C[Si](C)(CNCCN)c1ccccc1
inactive: [1] 101 % of control | dose: 60.0 mg/kg/injection, schedule: Q01DX005 (ip), vehicle: saline 91 % of control | [2] 105 % of control | dose: 120.0 mg/kg/injection, schedule: Q01DX005 (ip), vehicle: saline 93 % of control | [3] 101 % of control

C[N+](C)(C)CCC[n+]1ccc(CCn2ccc3ccccc32)cc1
inactive: dose: 25.0 mg/kg/injection, schedule: Q01DX001 (ip), vehicle: saline 93 % of control | dose: 50.0 mg/kg/injection, schedule: Q01DX001 (ip), vehicle: saline 92 % of control | dose: 100.0 mg/kg/injection, schedule: Q01DX001 (ip), vehicle: saline 102 % of control

COC1=CC23CCCN2CCc2cc4c(cc2C3C1O)OCO4 (stereo not drawn)
inactive: dose: 12.5 mg/kg/injection, schedule: Q01DX009 (ip), vehicle: water 103 % of control | dose: 25.0 mg/kg/injection, schedule: Q01DX009 (ip), vehicle: water 99 % of control | dose: 50.0 mg/kg/injection, schedule: Q01DX009 (ip), vehicle: water 104 % of control | dose: 60.0 mg/kg/injection, schedule: Q01DX005 (ip), vehicle: Klucel (hydroxypropylcellulose) (HPC) 101 % of control | dose: 100.0 mg/kg/injection, schedule: Q01DX009 (ip), vehicle: water 96 % of control | dose: 120.0 mg/kg/injection, schedule: Q01DX005 (ip), vehicle: Klucel (hydroxypropylcellulose) (HPC) 106 % of control | dose: 200.0 mg/kg/injection, schedule: Q01DX009 (ip), vehicle: water 99 % of control | dose: 240.0 mg/kg/injection, schedule: Q01DX005 (ip), vehicle: Klucel (hydroxypropylcellulose) (HPC) 101 % of control

CCCCCSSSCCCCC
inactive: [4] 101 % of control | [5] 96 % of control | [6] 104 % of control

O=C(N1CCC2(CC1)SSC1(CCN(C(=O)C(F)(F)F)CC1)S2)C(F)(F)F
inactive: dose: 100.0 mg/kg/injection, schedule: Q04DX003 (ip), vehicle: saline with Tween-80 87 % of control | dose: 200.0 mg/kg/injection, schedule: Q04DX003 (ip), vehicle: saline with Tween-80 91 % of control

O=S(CCCl)c1ccccc1 (stereo not drawn)
inactive: [7] 96 % of control | [8] 97 % of control | [9] 101 % of control | [10] 90 % of control

O=C1NC(O)c2cc(Cl)ccc2O1 (stereo not drawn)
inactive: [11] 96 % of control | [12] 97 % of control | [13] 96 % of control

NNC(=O)CNc1cc(Cl)cc(Cl)c1
inactive: [1] 113 % of control | [2] 97 % of control | [3] 100 % of control

Cc1ccc2[nH]c3c(c2c1)C(=O)CCC3
inactive: [11] 97 % of control | [12] 95 % of control | [13] 92 % of control

O=c1[nH]c(=O)c2[nH]c(=O)[nH]c(=O)c2[nH]1
inactive: [11] 99 % of control | [12] 96 % of control | [13] 103 % of control

O=C/C=C/c1ccc([N+](=O)[O-])cc1Cl
inactive: [7] 104 % of control | [8] 106 % of control | [4] 115 % of control | [9] 106 % of control | [5] 124 % of control | [6] 124 % of control

COc1c2ccoc2nc2c(OC)c3c(cc12)OCO3
inactive: dose: 6.25 mg/kg/injection, schedule: Q01DX009 (ip), vehicle: Klucel (hydroxypropylcellulose) (HPC) 105 % of control | dose: 12.5 mg/kg/injection, schedule: Q01DX009 (ip), vehicle: Klucel (hydroxypropylcellulose) (HPC) 99 % of control | dose: 25.0 mg/kg/injection, schedule: Q01DX009 (ip), vehicle: Klucel (hydroxypropylcellulose) (HPC) 94 % of control | [14] 94 % of control

C1=C(/c2ccccc2)NCCN=C(c2ccccc2)CS/1
inactive: [15] 104 % of control | [16] 101 % of control | dose: 200.0 mg/kg/injection, schedule: Q01DX005 (ip), vehicle: saline with Tween-80 101 % of control

Cc1c(Br)c(Br)nn1C(C)C(=O)N(C)C (stereo not drawn)
inactive: [14] 110 % of control | dose: 100.0 mg/kg/injection, schedule: Q01DX009 (ip), vehicle: Klucel (hydroxypropylcellulose) (HPC) 99 % of control | dose: 200.0 mg/kg/injection, schedule: Q01DX009 (ip), vehicle: Klucel (hydroxypropylcellulose) (HPC) 101 % of control

Cc1cc(=O)n2c(-c3ccc(Cl)cc3)csc2n1
inactive: dose: 25.0 mg/kg/injection, schedule: Q04DX002 (ip), vehicle: Klucel (hydroxypropylcellulose) (HPC) 90 % of control | dose: 50.0 mg/kg/injection, schedule: Q04DX002 (ip), vehicle: Klucel (hydroxypropylcellulose) (HPC) 101 % of control | dose: 100.0 mg/kg/injection, schedule: Q04DX002 (ip), vehicle: Klucel (hydroxypropylcellulose) (HPC) 102 % of control

CSCc1cc(Cl)cc2c1OCOC2
inactive: [8] 102 % of control | [9] 96 % of control | [10] 100 % of control

COc1ccccc1/C=N/NC(=O)Cc1ccccc1
inactive: [8] 101 % of control | [9] 91 % of control | [10] 93 % of control

C=C(C)C(=O)OC1CCC2(C)C(CCC3C2CCC2(C)C(c4ccc(=O)oc4)CC4OC432)C1 (stereo not drawn)
inactive: dose: 1.25 mg/kg/injection, schedule: Q01DX009 (ip), vehicle: saline with Tween-80 98 % of control | dose: 2.5 mg/kg/injection, schedule: Q01DX009 (ip), vehicle: saline with Tween-80 100 % of control | dose: 5.0 mg/kg/injection, schedule: Q01DX009 (ip), vehicle: saline with Tween-80 122 % of control | dose: 10.0 mg/kg/injection, schedule: Q01DX009 (ip), vehicle: saline with Tween-80 106 % of control | dose: 20.0 mg/kg/injection, schedule: Q01DX009 (ip), vehicle: saline with Tween-80 100 % of control

COc1cccc(C(=O)CC(c2ccccc2)C(C)(C)[N+](=O)[O-])c1 (stereo not drawn)
inactive: dose: 25.0 mg/kg/injection, schedule: Q01DX005 (ip), vehicle: saline with Tween-80 105 % of control | [15] 99 % of control | [16] 99 % of control

CCOC(=O)C1CC(=O)SC1=O (stereo not drawn)
inactive: dose: 25.0 mg/kg/injection, schedule: Q04DX002 (ip), vehicle: saline with Tween-80 101 % of control | dose: 50.0 mg/kg/injection, schedule: Q04DX002 (ip), vehicle: saline with Tween-80 100 % of control | dose: 100.0 mg/kg/injection, schedule: Q04DX002 (ip), vehicle: saline with Tween-80 99 % of control

CCOC(=O)c1cc(=O)oc(=O)[nH]1
inactive: dose: 6.25 mg/kg/injection, schedule: Q04DX003 (ip), vehicle: Klucel (hydroxypropylcellulose) (HPC) 105 % of control | dose: 12.5 mg/kg/injection, schedule: Q04DX003 (ip), vehicle: Klucel (hydroxypropylcellulose) (HPC) 112 % of control | dose: 25.0 mg/kg/injection, schedule: Q04DX003 (ip), vehicle: Klucel (hydroxypropylcellulose) (HPC) 114 % of control | dose: 100.0 mg/kg/injection, schedule: Q04DX003 (ip), vehicle: Klucel (hydroxypropylcellulose) (HPC) 89 % of control | dose: 200.0 mg/kg/injection, schedule: Q04DX003 (ip), vehicle: Klucel (hydroxypropylcellulose) (HPC) 87 % of control

Oc1ccc(/C=N/Nc2nnc(N/N=C/c3ccc(O)cc3O)c3ccccc23)c(O)c1
inactive: dose: 3.12 mg/kg/injection, schedule: Q01DX009 (ip), vehicle: saline 106 % of control | dose: 3.12 mg/kg/injection, schedule: Q01DX009 (ip), vehicle: suspension in saline 116 % of control | dose: 6.25 mg/kg/injection, schedule: Q01DX009 (ip), vehicle: saline 112 % of control | dose: 12.5 mg/kg/injection, schedule: Q01DX009 (ip), vehicle: saline 117 % of control
